A word on the IC50: it is the midpoint of a concentration-inhibition curve. In general, Ki refers to the equilibrium dissociation constant of an inhibitor or competing ligand from its target.

One experiment concerns AKR1C enzymes. The experiment in a line: Inhibition of AKR1C enzymes (FIG. 20). Format: biochemical.
Experiment [1] addresses T1, AKR1C3 (Homo sapiens (Human), UniProt P42330). Put plainly: Inhibition of NADP+ dependent oxidation of S-tetralol by recombinant AKR1C3. Format: biochemical. Particulars: for IC50: S-tetralol oxidation, substrate at KM. The method, then: The inhibitory potency of the compounds disclosed herein was determined using purified homogenous recombinant enzymes. Full concentration response studies were conducted and IC50 values calculated using Grafit 5.0 software. The compounds were evaluated for their effects on enzyme catalyzed oxidation of S-tetralol using a 96-well plate format.
The primary screen was also modified to report the following ratio: AKR1C2 IC50 value:AKR1C3 IC50 value. […] When bifunctional AKR1C3 and SARMs are sought the androgen receptor reporter gene assay is moved up in sequence.
Based on this assumption, the screening strategy adopted was to determine the inhibitory potency of each compound against AKR1C2 and AKR1C3 and use the ratio of IC50 value for AKR1C2:IC50 value for AKR1C3 as an index of compound selectivity for AKR1C3. The inhibitory potency of compounds on AKR1C2 and AKR1C3 was determined by measuring the inhibition of the NADP^+ dependent oxidation of S-tetralol.

In experiment [2] the target is T1, AKR1C3. The experiment in a line: Conversion of Δ4-AD to testosterone in LNCaP cells stably transfected with AKR1C3. The note with it: for amount of testosterone formed from Δ4-AD: LNCaP-AKR1C3 cells; for conversion of Δ4-AD to testosterone: LNCaP-AKR1C3 transfected cells, 10 μM. Format: cell-based. The method, then: LNCaP cells were stably transfected with AKR1 C3 using the retroviral construct pLNCX-AKR1C3, and its expression was documented using both RT-PCR and immunoblot analysis using an isoform specific monoclonal AKR1C3 antibody (Byrns et al., 2012, J. Steroid Biochem. Mol. Biol. 130:7-15). Metabolism studies of 0.1 μM and 5.0 μM [^14C]-Δ^4-AD were conducted in LNCaP and LNCaP-AKR1C3 cells with the anticipation that the transfected cells would form more testosterone. The bulk of the metabolites formed in LNCaP cells were found in the aqueous phase. When this phase was treated with β-glucuronidase (200 units/mL at pH 6.6) and re-extracted, androsterone was the predominate metabolite released into the organic soluble fraction providing evidence for the formation of androsterone-3α-glucuronide. When LNCaP-AKR1C3 transfected cells were used, the bulk of the metabolites were again found in the aqueous phase. However, β-glucuronidase treatment of the aqueous phase yielded both androsterone and testosterone, providing evidence for testosterone formation by these cells.
Tertiary screens of the compounds of interest include: (a) inhibition of the conversion of Δ^4-AD to testosterone in LNCaP (AR dependent prostate cancer) cells stably transfected with AKR1C3; (b) inhibition of Δ^4-AD mediated cell proliferation in LNCaP cells stably transfected with AKR1C3; and (c) inhibition of growth of castrate resistant prostate cancer cells in culture.

Experiment [3] concerns the target retinal reductase (AKR1B10) (Homo sapiens (Human), UniProt O60218). The experiment in a line: Secondary screen against retinal reductase. Format: biochemical.
In another experiment the target is COX-1 (Homo sapiens (Human), UniProt P23219). The experiment in a line: Screen against COX-1. Format: biochemical.
Another experiment concerns the target COX-2 (Homo sapiens (Human), UniProt P35354). Put plainly: Screen against COX-2. Format: biochemical.
The target in experiment [4] is T2, AR (Homo sapiens (Human), UniProt P10275). Put plainly: AR nuclear translocation from the cytosol in HeLa 13 cells. The note with it: presence of DHT.
Excerpt: AR LE and AR SE=long and short exposure to detect cytoplasmic AR. β-tubulin was used as a loading control.
Experiment [5] concerns mutated AR and PSA expression. Put plainly: Mutated AR levels and PSA expression in LNCaP-AKR1C3 cells. Format: cell-based. Particulars: presence of either 1.0 nM 5α-DHT or 100 nM Δ4-AD.
In experiment [6] the test system is prostatic specific antigen (PSA) gene expression. Put plainly: AR regulated PSA gene expression in LNCaP cells. Format: cell-based. The note with it: 10-30 μM, presence and absence of 5α-DHT (0.1-1.0 nM).
Experiment [7] deals with T2, AR. Put plainly: AR stability / degradation in Hela cells. Format: cell-based. Particulars: 10-40 μM, presence and absence of 0.1 nM 5α-DHT.
Experiment [8] deals with T1, AKR1C3. The experiment in a line: Inhibition of AKR1C3 catalyzed reduction of Δ4-androstene-3,17-dione to testosterone. Format: biochemical. An excerpt: Compounds may be evaluated as selective reversible inhibitors of AKR1C3 by screening them against homogeneous recombinant AKR1C1-AKR1C4 expressed in E. coli. […] IC50 values are generated using steroid concentrations at KM.
The primary screen was also modified to report the following ratio: AKR1C2 IC50 value:AKR1C3 IC50 value. A high ratio reflects a high selectivity for AKR1C3 and data are used to generate heat-maps, FIG. 14. This method is preferred to measuring percent inhibition using a single concentration of 1.0 μM inhibitor, since this single point method is prone to identifying false positives. […] The leads may then be moved into secondary in vitro screens (complete screen against all human AKR isoforms; COX-1 and COX-2; and other relevant human 17β-HSD isoforms); tertiary screens using cell-based assays (inhibition of AKR1C3 mediated testosterone production and AKR1C3 mediated cell proliferation in prostate cancer cell lines; and modulation of the androgen receptor in reporter gene assays); and quaternary screens in xenograft models of CRPC. When bifunctional AKR1C3 and SARMs are sought the androgen receptor reporter gene assay is moved up in sequence.

The target in experiment [9] is aldose reductase (AKR1B1) (Homo sapiens (Human), UniProt P15121). The experiment in a line: Secondary screen against aldose reductase. Format: biochemical.

On to “4-chloro-N-phenylanthranilate [reference compound]”, for which the “inhibition of AKR1C enzymes” value in the experiment on AKR1C enzymes was “inhibits”.
As to `O=C(O)c1ccccc1Nc1cccc(C(F)(F)F)c1` [Compound 1, Flufenamic Acid, reference compound], the IC50 on AKR1C3 [1] came out at 50 nM.
For the compound `O=C(O)c1cccc(Nc2ccccc2)c1` [Compound 3, 3-Phenylamino benzoic acid], the IC50 on AKR1C3 [1] is 940 nM.
Regarding `O=C(O)c1cccc(Nc2ccc([N+](=O)[O-])cc2)c1` [Compound 5, 3-[N-(4-nitrophenyl)amino]benzoic acid], on AKR1C3 [1], the “AKR1C3 inhibitory potency (in words)” value was “low nanomolar range” and the IC50 was 36 nM.
Turning to `O=C(O)c1cccc(Nc2ccc(C(F)(F)F)cc2)c1` [Compound 7, 3-[N-(4-Trifluoromethylphenyl)amino]benzoic acid], the “amount of testosterone formed from Δ4-AD” value at AKR1C3 [2] is reported as “significant decline”.
As to `O=C(O)c1cccc(Nc2ccc(Cl)cc2)c1` [Compound 8, 3-[N-(4-Chlorophenyl)amino]benzoic acid], the “conversion of Δ4-AD to testosterone” value on AKR1C3 [2] is “completely blocked”.
Turning to `O=C(O)c1cccc(Nc2ccc([N+](=O)[O-])c3ccccc23)c1` [Compound 13, 3-((4-nitronaphthalen-1-yl)amino)benzoic acid], the “slope factor of the inhibition dose-response curve” value on AKR1C3 [1] (AKR1C3) is recorded as “approximately two”. Further, the Ki at AKR1C3 [1] (S-tetralol as substrate) was determined as 58.2 nM; at AKR1C3 [8] (Δ4-androstene-3,17-dione as substrate) it was 2470 nM. In addition, the “pattern of inhibition of AKR1C3” value on AKR1C3 [1] (S-tetralol as substrate, E.NADP+.S-tetralol complex) was “competitive inhibition”; at AKR1C3 [8] (Δ4-AD as substrate, E.NADPH.Δ4-AD complex), “competitive inhibition”. At AKR1C3 [1], the IC50 was determined as 75 nM. In addition, the “amount of testosterone formed from Δ4-AD” value on AKR1C3 [2] is reported as “significant decline”. Further, on AKR1C3 [2], the “conversion of Δ4-AD to testosterone” value is recorded as “completely blocked”. In experiment [3], the “inhibition of retinal reductase (AKR1B10)” value is “failed to inhibit”. In addition, the “inhibition of COX-1” value against COX-1 is “failed to inhibit”. At COX-2, the “inhibition of COX-2” value was “failed to inhibit”. For the same compound, at AR [4], the “cytoplasmic AR (prevention of nuclear localization of the AR)” value is “dose dependent increase in cytoplasmic AR”. For the same compound, the “expression of the mutated AR and PSA” value in experiment [5] is on record as “decrease”. Also, in [6], the “expression of PSA” value is reported as “block the expression of PSA”. Moreover, the “degradation of the AR” value on AR [7] was “dose-dependent degradation”. The “inhibition of aldose reductase (AKR1B1)” value in [9] is “failed to inhibit”.

(Values after patent US9271961B2, “Bifunctional AKR1C3 inhibitors/androgen receptor modulators and methods of use thereof” (THE TRUSTEES OF THE UNIVERSITY OF PENNSYLVANIA, priority 2011, dated 2016).)
